The target of the test is T1, BRM (Homo sapiens, UniProt P51531).
T1 construct: In-Cell Western Screen of BRM Degradation in SW1573 Cells; endogenous in cells; host or cells: SW1573
The experiment in a line: In-cell Western screen of BRM degradation in SW1573 cells (Dmax and DC50). Type of test: cell-based. The essentials:
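Overnight compound treatment (18-20 h, final DMSO 0.1%) of SW1573 cells in DMEM with 10% FBS precedes fixation and in-cell Western staining with 800/680 nm dye-labelled secondaries. Plate images give DC50 and maximal degradation.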

The mark [1] stands for this setting: BRM degradation, SW1573 cells, read-out: DC50.
[2] abbreviates: BRM degradation, SW1573 cells, when tested at the top concentration of between 0.3 and 10 μM, read-out: Dmax (%) (% degraded).
Where [3] appears, read: SW1573, % degraded, when tested at the top concentration of between 0.3 and 10 μM, read-out: BRM Dmax (%).
[4] abbreviates: degradation of BRM, read-out: BRM DC50.
The mark [5] stands for this setting: BRM degradation, SW1573 cells, Table 2D, read-out: *DC50.
[6] abbreviates: BRM degradation, read-out: BRM DC50.

For 13 compounds, DC50 and Dmax results are on record in patent publication US12539292B2, “BRM targeting compounds and associated methods of use” (Arvinas Operations, Inc., priority 2018, dated 2026).

Like-named read-outs stand apart in the source and are kept apart here. Where only a bound is given, the exact number is not on record here.

T1 sequence (P51531 whole entry): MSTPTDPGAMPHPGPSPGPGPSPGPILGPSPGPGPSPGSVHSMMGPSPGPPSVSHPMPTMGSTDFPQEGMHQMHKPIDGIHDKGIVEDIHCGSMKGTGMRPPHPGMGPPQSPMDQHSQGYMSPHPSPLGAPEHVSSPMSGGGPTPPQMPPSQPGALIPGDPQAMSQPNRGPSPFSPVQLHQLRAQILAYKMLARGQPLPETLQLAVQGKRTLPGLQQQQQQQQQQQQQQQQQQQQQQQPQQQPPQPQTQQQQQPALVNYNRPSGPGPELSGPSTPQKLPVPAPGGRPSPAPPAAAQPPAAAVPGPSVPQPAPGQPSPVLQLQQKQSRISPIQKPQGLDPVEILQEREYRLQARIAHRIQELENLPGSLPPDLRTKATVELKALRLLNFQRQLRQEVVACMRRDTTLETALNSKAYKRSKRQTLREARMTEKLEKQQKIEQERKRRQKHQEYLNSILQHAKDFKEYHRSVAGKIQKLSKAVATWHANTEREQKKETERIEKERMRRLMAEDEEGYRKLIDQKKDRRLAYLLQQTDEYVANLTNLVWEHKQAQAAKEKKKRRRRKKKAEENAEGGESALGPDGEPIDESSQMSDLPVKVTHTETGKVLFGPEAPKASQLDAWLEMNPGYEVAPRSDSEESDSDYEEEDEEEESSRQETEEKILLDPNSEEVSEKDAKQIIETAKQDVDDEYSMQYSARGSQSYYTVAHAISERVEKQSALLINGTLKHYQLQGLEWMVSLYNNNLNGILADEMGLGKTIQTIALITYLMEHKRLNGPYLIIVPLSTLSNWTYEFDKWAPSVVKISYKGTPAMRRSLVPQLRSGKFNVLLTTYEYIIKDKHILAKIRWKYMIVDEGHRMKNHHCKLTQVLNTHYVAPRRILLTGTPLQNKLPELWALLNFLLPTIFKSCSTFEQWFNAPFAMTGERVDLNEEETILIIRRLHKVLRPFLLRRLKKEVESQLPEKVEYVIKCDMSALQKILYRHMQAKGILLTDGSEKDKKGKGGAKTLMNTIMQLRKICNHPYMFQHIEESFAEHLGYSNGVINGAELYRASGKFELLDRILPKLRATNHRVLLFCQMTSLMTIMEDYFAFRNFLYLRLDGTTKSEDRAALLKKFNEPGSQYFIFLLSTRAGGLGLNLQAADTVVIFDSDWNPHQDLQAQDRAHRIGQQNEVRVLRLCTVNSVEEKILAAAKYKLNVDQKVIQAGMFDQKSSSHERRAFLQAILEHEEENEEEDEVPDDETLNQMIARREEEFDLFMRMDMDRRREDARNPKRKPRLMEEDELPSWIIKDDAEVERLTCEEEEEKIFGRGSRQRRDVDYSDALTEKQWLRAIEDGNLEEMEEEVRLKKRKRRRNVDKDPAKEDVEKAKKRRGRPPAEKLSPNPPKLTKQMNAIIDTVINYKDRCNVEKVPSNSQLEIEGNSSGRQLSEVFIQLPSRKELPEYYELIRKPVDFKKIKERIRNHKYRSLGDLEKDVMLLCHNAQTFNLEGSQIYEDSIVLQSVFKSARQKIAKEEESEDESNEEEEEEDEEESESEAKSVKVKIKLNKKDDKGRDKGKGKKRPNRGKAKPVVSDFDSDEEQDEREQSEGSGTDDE

By DC50 is commonly meant the concentration at which degradation of the target reaches its halfway point. As usually defined, the Dmax is the greatest extent of degradation seen. Take `Cc1ncsc1-c1ccc([C@H](C)NC(=O)[C@@H]2C[C@@H](O)CN2C(=O)[C@@H](c2cc(OCCN3CCC4(CC3)CC(OCCN3CCOC5(CCN(c6cc(-c7ccccc7O)nnc6N)CC5)C3)C4)no2)C(C)C)cc1` [compound 93, (2S,4R)-1-((R)-2-(3-(2-(2-(2-(9-(3-amino-6-(2-hydroxyphenyl)pyridazin-4-yl)-1-oxa-4,9-diazaspiro[5.5]undecan-4-yl)ethoxy)-7-azaspiro[3.5]nonan-7-yl)ethoxy)isoxazol-5-yl)-3-methylbutanoyl)-4-hydroxy-N-((S)-1-(4-(4-methylthiazol-5-yl)phenyl)ethyl)pyrrolidine-2-carboxamide]: under setting [1], the DC50 is < 2.5 nM. Besides, the greatest degradation seen (Dmax) under setting [2] is > 75%. Turning to `Cc1ncsc1-c1ccc([C@H](C)NC(=O)[C@@H]2C[C@@H](O)CN2C(=O)[C@@H](c2cc(N3CCC(CN4CCC(O[C@H]5C[C@H](Oc6cc(N7C8CCC7CN(c7cc(-c9ccccc9O)nnc7N)C8)ccn6)C5)CC4)CC3)no2)C(C)C)cn1` [compound 675, (2S,4R)-1-((2R)-2-(3-(4-((4-((1r,3r)-3-((4-(3-(3-amino-6-(2-hydroxyphenyl)pyridazin-4-yl)-3,8-diazabicyclo[3.2.1]octan-8-yl)pyridin-2-yl)oxy)cyclobutoxy)piperidin-1-yl)methyl)piperidin-1-yl)isoxazol-5-yl)-3-methylbutanoyl)-4-hydroxy-N-((S)-1-(6-(4-methylthiazol-5-yl)pyridin-3-yl)ethyl)pyrrolidine-2-carboxamide], the DC50 under setting [1] is < 2.5 nM. The Dmax (BRM degradation, SW1573 cells, read-out: Dmax (% degraded)) was > 75%. As for `Cc1ncsc1-c1ccc([C@H](C)NC(=O)[C@@H]2C[C@@H](O)CN2C(=O)[C@H](c2cc(OCCOCCOCCCCN3CC4(C3)CN(c3cc(-c5ccccc5O)nnc3N)C4)no2)C(C)C)cc1` [compound 65, (2S,4R)-1-((S)-2-(3-(2-(2-(4-(6-(3-amino-6-(2-hydroxyphenyl)pyridazin-4-yl)-2,6-diazaspiro[3.3]heptan-2-yl)butoxy)ethoxy)ethoxy)isoxazol-5-yl)-3-methylbutanoyl)-4-hydroxy-N-((S)-1-(4-(4-methylthiazol-5-yl)phenyl)ethyl)pyrrolidine-2-carboxamide], the DC50 under setting [1] is > 30 nM.

For `Cc1ncoc1-c1ccc([C@H](C)NC(=O)[C@@H]2C[C@@H](O)CN2C(=O)[C@H](c2cc(OCCN3CCC(O[C@H]4C[C@H](Oc5cc(N6C7CCC6CN(c6cc(-c8ccccc8O)nnc6N)C7)ccn5)C4)CC3)no2)C(C)C)cn1` [compound 229, (2S,4R)-1-((2S)-2-(3-(2-(4-((1r,3S)-3-((4-(3-(3-amino-6-(2-hydroxyphenyl)pyridazin-4-yl)-3,8-diazabicyclo[3.2.1]octan-8-yl)pyridin-2-yl)oxy)cyclobutoxy)piperidin-1-yl)ethoxy)isoxazol-5-yl)-3-methylbutanoyl)-4-hydroxy-N-((S)-1-(6-(4-methyloxazol-5-yl)pyridin-3-yl)ethyl)pyrrolidine-2-carboxamide], the DC50 under setting [1] was > 30 nM. Consider `CC(C)[C@@H](C(=O)N1C[C@H](O)C[C@H]1C(=O)N[C@@H](C)c1ccc(-c2c(F)cnn2C)cc1)c1cc(OCCN2CCN(CCOc3cc(N4C5CCC4CN(c4cc(-c6ccccc6O)nnc4N)C5)ccn3)CC2)no1` [compound 410, (2S,4R)-1-((2R)-2-(3-(2-(4-(2-((4-(3-(3-amino-6-(2-hydroxyphenyl)pyridazin-4-yl)-3,8-diazabicyclo[3.2.1]octan-8-yl)pyridin-2-yl)oxy)ethyl)piperazin-1-yl)ethoxy)isoxazol-5-yl)-3-methylbutanoyl)-N-((S)-1-(4-(4-fluoro-1-methyl-1H-pyrazol-5-yl)phenyl)ethyl)-4-hydroxypyrrolidine-2-carboxamide], for which the greatest degradation seen (Dmax) under setting [3] was > 75%. For the same compound, the DC50 under setting [4] is < 2.5 nM. As for `Cc1ncsc1-c1ccc([C@H](CCCC(N)=O)NC(=O)[C@@H]2C[C@@H](O)CN2C(=O)[C@H](c2cc(OCCN3CCC(O[C@H]4C[C@H](Oc5cc(N6C7CCC6CN(c6cc(-c8ccccc8O)nnc6N)C7)ccn5)C4)CC3)no2)C(C)C)cc1` [compound 555, (2S,4R)-N-((S)-5-amino-1-(4-(4-methylthiazol-5-yl)phenyl)-5-oxopentyl)-1-((2S)-2-(3-(2-(4-((1r,3S)-3-((4-(3-(3-amino-6-(2-hydroxyphenyl)pyridazin-4-yl)-3,8-diazabicyclo[3.2.1]octan-8-yl)pyridin-2-yl)oxy)cyclobutoxy)piperidin-1-yl)ethoxy)isoxazol-5-yl)-3-methylbutanoyl)-4-hydroxypyrrolidine-2-carboxamide], the DC50 under setting [5] was > 30 nM. With `Cc1ncsc1-c1ccc(CNC(=O)[C@@H]2C[C@@H](O)CN2C(=O)[C@@H](c2cc(OCCOCCOCCOCCOCCn3cc(-c4cc(-c5ccccc5O)nnc4N)cn3)no2)C(C)C)cc1` [compound 19, (2S,4R)-1-[(2R)-2-[3-[(14-[4-[3-amino-6-(2-hydroxyphenyl)pyridazin-4-yl]-1H-pyrazol-1-yl]-3,6,9,12-tetraoxatetradecan-1-yl)oxy]-1,2-oxazol-5-yl]-3-methylbutanoyl]-4-hydroxy-N-[[4-(4-methyl-1,3-thiazol-5-yl)phenyl]methyl]pyrrolidine-2-carboxamide], under setting [1], the 50% degradation concentration (DC50) is 10 to 30 nM. Moreover, under setting [2], the Dmax was > 75%. Take `Cc1cc([C@@H](C(=O)N2C[C@H](O)C[C@H]2C(=O)N[C@@H](C)c2ccc(-c3scnc3C)cc2)[C@H](C)COCCn2cc(-c3cc(-c4ccccc4O)nnc3N)cn2)on1` [compound 534, (2S,4R)-1-((2S,3S)-4-(2-(4-(3-amino-6-(2-hydroxyphenyl)pyridazin-4-yl)-1 H-pyrazol-1-yl)ethoxy)-3-methyl-2-(3-methylisoxazol-5-yl)butanoyl)-4-hydroxy-N-((S)-1-(4-(4-methylthiazol-5-yl)phenyl)ethyl)pyrrolidine-2-carboxamide]: the 50% degradation concentration (DC50) under setting [6] is > 30 nM. `Cc1ncsc1-c1ccc([C@H](C)NC(=O)[C@@H]2C[C@@H](O)CN2C(=O)[C@@H](c2cc(N3CCC(O[C@H]4C[C@H](Oc5cc(N6C7CCC6CN(c6cc(-c8ccccc8O)nnc6N)C7)ccn5)C4)CC3)no2)C(C)C)cc1` [compound 404, (2S,4R)-1-((2R)-2-(3-(4-((1r,3R)-3-((4-(3-(3-amino-6-(2-hydroxyphenyl)pyridazin-4-yl)-3,8-diazabicyclo[3.2.1]octan-8-yl)pyridin-2-yl)oxy)cyclobutoxy)piperidin-1-yl)isoxazol-5-yl)-3-methylbutanoyl)-4-hydroxy-N-((S)-1-(4-(4-methylthiazol-5-yl)phenyl)ethyl)pyrrolidine-2-carboxamide]: under setting [3], the Dmax is > 75%. Further, the DC50 under setting [4] was < 2.5 nM.

Turning to `Cc1ncsc1-c1ccc([C@H](C)NC(=O)[C@@H]2C[C@@H](O)CN2C(=O)[C@H](c2cc(OCC(F)(F)CN3CCC(O[C@H]4C[C@H](Oc5cc(N6C7CCC6CN(c6cc(-c8ccccc8O)nnc6N)C7)ccn5)C4)CC3)no2)C(C)C)cn1` [compound 421, (2S,4R)-1-((2S)-2-(3-(3-(4-((1r,3S)-3-((4-(3-(3-amino-6-(2-hydroxyphenyl)pyridazin-4-yl)-3,8-diazabicyclo[3.2.1]octan-8-yl)pyridin-2-yl)oxy)cyclobutoxy)piperidin-1-yl)-2,2-difluoropropoxy)isoxazol-5-yl)-3-methylbutanoyl)-4-hydroxy-N-((S)-1-(6-(4-methylthiazol-5-yl)pyridin-3-yl)ethyl)pyrrolidine-2-carboxamide], the DC50 under setting [4] was > 30 nM.

With `Cc1ncsc1-c1ccc([C@H](C)NC(=O)[C@@H]2C[C@@H](O)CN2C(=O)[C@H](c2cc(OCCN3CCC(O[C@H]4C[C@H](Oc5cc(N6C7CCC6CN(c6cc(-c8ccccc8O)nnc6N)C7)ccn5)C4)CC3)no2)C(C)C)nn1` [compound 503, (2S,4R)-1-((2S)-2-(3-(2-(4-((1r,3S)-3-((4-(3-(3-amino-6-(2-hydroxyphenyl)pyridazin-4-yl)-3,8-diazabicyclo[3.2.1]octan-8-yl)pyridin-2-yl)oxy)cyclobutoxy)piperidin-1-yl)ethoxy)isoxazol-5-yl)-3-methylbutanoyl)-4-hydroxy-N-((S)-1-(6-(4-methylthiazol-5-yl)pyridazin-3-yl)ethyl)pyrrolidine-2-carboxamide], the DC50 under setting [6] was > 30 nM. On to `COc1nc(-c2scnc2C)c(F)cc1[C@@H](C)NC(=O)[C@@H]1C[C@@H](O)CN1C(=O)[C@H](c1cc(OCCN2CCC(O[C@H]3C[C@H](Oc4cc(N5C6CCC5CN(c5cc(-c7ccccc7O)nnc5N)C6)ccn4)C3)CC2)no1)C(C)C` [compound 563, (2S,4R)-1-((2S)-2-(3-(2-(4-((1r,3S)-3-((4-(3-(3-amino-6-(2-hydroxyphenyl)pyridazin-4-yl)-3,8-diazabicyclo[3.2.1]octan-8-yl)pyridin-2-yl)oxy)cyclobutoxy)piperidin-1-yl)ethoxy)isoxazol-5-yl)-3-methylbutanoyl)-N-((R)-1-(5-fluoro-2-methoxy-6-(4-methylthiazol-5-yl)pyridin-3-yl)ethyl)-4-hydroxypyrrolidine-2-carboxamide], for which the DC50 under setting [5] is > 30 nM. Consider `Cc1ncsc1-c1ccc([C@H](C)NC(=O)[C@@H]2C[C@@H](O)CN2C(=O)[C@@H](c2cc(OCCN3CCC(C(=O)N4CC(Oc5cc(N6C7CCC6CN(c6cc(-c8ccccc8O)nnc6N)C7)ccn5)C4)CC3)no2)C(C)C)cc1` [compound 405, (2S,4R)-1-((2R)-2-(3-(2-(4-(3-((4-(3-(3-amino-6-(2-hydroxyphenyl)pyridazin-4-yl)-3,8-diazabicyclo[3.2.1]octan-8-yl)pyridin-2-yl)oxy)azetidine-1-carbonyl)piperidin-1-yl)ethoxy)isoxazol-5-yl)-3-methylbutanoyl)-4-hydroxy-N-((S)-1-(4-(4-methylthiazol-5-yl)phenyl)ethyl)pyrrolidine-2-carboxamide], for which the greatest degradation seen (Dmax) under setting [3] is > 75%. The DC50 under setting [4] is < 2.5 nM.
